Source: patent US20110098288A1, “SULFONAMIDES AS ZAP-70 INHIBITORS” (priority 2008, published 2011)

Experiments:
ZAP-70 = target: T1, ZAP-70 (Homo sapiens, UniProt P43403); assay: ZAP-70 kinobeads assay; assay type: binding; conditions: competition with immobilized aminopyrido-pyrimidine ligand 24 in cell lysate; ZAP-70 detected by dot blot
T1 construct: endogenous in cells; host or cells: cell lysate
T1 sequence (P43403 1-619): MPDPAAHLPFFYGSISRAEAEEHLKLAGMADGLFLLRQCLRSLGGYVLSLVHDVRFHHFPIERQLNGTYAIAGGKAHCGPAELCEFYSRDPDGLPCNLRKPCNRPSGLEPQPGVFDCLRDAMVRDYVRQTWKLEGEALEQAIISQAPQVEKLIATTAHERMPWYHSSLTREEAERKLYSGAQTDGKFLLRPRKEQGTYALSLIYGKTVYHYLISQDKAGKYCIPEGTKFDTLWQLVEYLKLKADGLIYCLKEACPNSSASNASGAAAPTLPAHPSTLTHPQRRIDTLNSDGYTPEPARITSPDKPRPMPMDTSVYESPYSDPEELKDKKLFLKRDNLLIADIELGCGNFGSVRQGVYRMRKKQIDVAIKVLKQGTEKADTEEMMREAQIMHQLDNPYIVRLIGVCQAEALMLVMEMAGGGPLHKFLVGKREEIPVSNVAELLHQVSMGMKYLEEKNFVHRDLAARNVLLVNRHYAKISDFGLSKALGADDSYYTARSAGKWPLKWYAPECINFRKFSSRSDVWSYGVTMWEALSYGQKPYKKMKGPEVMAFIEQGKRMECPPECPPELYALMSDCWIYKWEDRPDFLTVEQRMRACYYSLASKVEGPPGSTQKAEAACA
Outline: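 Cell lysate aliquots incubated with test compounds at various concentrations plus affinity beads carrying immobilized aminopyrido-pyrimidine ligand 24. Bead-captured proteins eluted; ZAP-70 quantified by specific antibody dot blot with infrared detection.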

Jurkat cells = assay: Calcium release assay (Fluo-4 flow cytometry after anti-CD3 stimulation); assay type: cell-based; conditions: Homo sapiens, Jurkat cell line J77, anti-CD3 activation, read-out: IC50 (Calcium ion release in cells)
Description: Compounds of the present invention were tested in a Calcium release assay as described below.
The development of fluorescent probes makes it possible to measure the concentration of intracellular free Calcium ions in single living cells. Cells are first loaded with a cell-permeable Ca^2+-sensitive dye, then the test compound is added. Finally, cells are activated through the T cell receptor with an anti-CD3 antibody shortly before data acquisition on the flow cytometer. The release of Ca^2+ is measured as a function of time after cell stimulation. This protocol describes the flow cytometry method using the Fluo-3 and Fluo-4 dyes (Minta et al., 1989, J. Biol. Chem. 264(14):8171-8178) to measure the intracellular Ca^2+ concentration in Jurkat cells (see also June et al., 1997, Measurement of intracellular calcium ions by flow cytometry. In: Current Protocols in Cytometry (1997) Unit 9.8.1-9.8.19, John Wiley & Sons, Inc.).
In general, cells should be handled in the shortest time possible to assure their stability. Therefore the preparation of all materials in advance is highly recommended as well as using any incubation or centrifugation time to prepare the next steps (e.g. preparing compound dilution or starting the flow cytometer).
1) Prepare a work plan indicating the number of samples to be analyzed including controls. 2) Cell harvest: Centrifuge 50 to 100 ml of a Jurkat cell culture for 5 minutes at 1100 rpm. Discard the supernatant, pool the resuspended cell pellets in a single 50 ml Falcon tube, and fill up to 50 ml with PBS—CaCl2 (without FCS). Centrifuge again sample again. 3) Resuspend cell pellet with PBS—CaCl2 (without FCS) to achieve a concentration not lower than 10×10^6 cells/ml. Prepare an adequate dilution to evaluate the cell concentration and count the cells. 4) Separate the volume of cells needed to be loaded (for example […] for 20 samples) in a 50 ml Falcon tube. Fill up with PBS—CaCl2 to 900 μl for 107 cells. 5) Prepare in the dark a 1:1 mix of FLUO-4 (1 mM)+Pluronic F-127 (20%). 5 μl of Fluo-4 are needed per 107 cells. 6) Prepare a 1/10 dilution of this mix with PBS—CaCl2 (in the dark; for example 5 μl Fluo-4+5 μl F-127 completed to 100 μl). 7) Add the dye solution to the cells. […] 8) Incubate the sample for 30 minutes in a cell incubator (37° C., 5% CO2). Mix from time to time. 9) During this time prepare the adequate test compound dilution in PBS—CaCl2 (with 10% FCS). The solution should be 10 times more concentrated than the desired final concentration. Vortex each dilution. Prepare also the antibody dilutions: anti-CD3 (1/200) and GAM (1/25). 10) Label FACS tubes and distribute in the corresponding tube 30 μl of the compound dilution or only buffer for the control tubes. 11) After 30 minutes of incubation wash the cells twice in PBS—CaCl2 (with 10% FCS). During the washing steps make sure that the flow cytometer is already “ON” in order to warm the laser. 12) Resuspend the cell pellet in PBS—CaCl2 (with 10% FCS) at a concentration of 1.5×10^6 cells/ml. 13) Distribute 300 μl of cell suspension into the FACS tubes and mix gently. The compound incubation is starting. Keep samples at room temperature in the dark. 14) Open the settings of the cytometer. It is advised to have a template ready which is used for all measurements. Settings of the machine should also be the same from one experiment to the other which permits to evaluate the reproducibility of the cell preparation. 15) In Setup modus control your cell preparation on the cytometer. Cells should fit in the pre-defined gates. 16) During the compound incubation time, check also that cells are responding to the anti-CD3 activation as expected. Set a timer at 8 sec. Add 6 μl of anti-CD3 dilution (0.2 μg/ml final) and mix gently. Add 1 μl of GAM dilution (0.75 μg/ml final) and mix gently. Incubate the samples in water bath at 37° C. while starting timer. After 8 seconds of incubation, acquire data at medium speed for 200 seconds. […]

IC50 (ZAP-70) [nM] | IC50 (Jurkat cells) [nM] | SMILES
< 100 | < 100 | Cc1cccc(Nc2nc(Nc3cccc(OCCN4CCCCC4)c3)ncc2Cl)c1NS(C)(=O)=O [Example 128, N-(2-(5-chloro-2-(3-(2-(piperidin-1-yl)ethoxy)phenylamino)pyrimidin-4-ylamino)-6-methylphenyl)methanesulfonamide]
< 100 | < 100 | CCOc1ccc(Nc2nc(Nc3cc(OC)c(OC)c(OC)c3)ncc2F)c(NS(C)(=O)=O)c1 [Example 175, N-(5-ethoxy-2-(5-fluoro-2-(3,4,5-trimethoxyphenylamino)pyrimidin-4-ylamino)phenyl)methanesulfonamide]
< 100 | 100 to 1000 | CN1CCCC(COc2cccc(Nc3ncc(F)c(Nc4ccccc4NS(C)(=O)=O)n3)c2)C1 (stereo not drawn) [Example 98, N-(2-(5-fluoro-2-(3-((1-methylpiperidin-3-yl)methoxy)phenylamino)pyrimidin-4-ylamino)phenyl)methanesulfonamide]
< 100 | 100 to 1000 | CS(=O)(=O)Nc1ccccc1Nc1nc(Nc2cccc(OCCN3CCCC3)c2)ncc1F [Example 95, N-(2-(5-fluoro-2-(3-(2-(pyrrolidin-1-yl)ethoxy)phenylamino)pyrimidin-4-ylamino)phenyl)methanesulfonamide]
100 to 1000 | < 100 | CCN(c1ccccc1Nc1nc(Nc2cc(OC)c(OC)c(OC)c2)ncc1F)S(C)(=O)=O [Example 154, N-ethyl-N-(2-(5-fluoro-2-(3,4,5-trimethoxyphenylamino)pyrimidin-4-ylamino)phenyl)methanesulfonamide]
100 to 1000 | < 100 | CCN(c1ccccc1Nc1nc(Nc2ccc(OCCN3CCCCC3)cc2)ncc1F)S(C)(=O)=O [Example 158, N-ethyl-N-(2-(5-fluoro-2-(4-(2-(piperidin-1-yl)ethoxy)phenylamino)pyrimidin-4-ylamino)phenyl)methanesulfonamide]
100 to 1000 | 100 to 1000 | COc1cc(Nc2ncc(F)c(Nc3cccc(F)c3NS(C)(=O)=O)n2)cc(OC)c1OC [Example 183, N-(2-fluoro-6-(5-fluoro-2-(3,4,5-trimethoxyphenylamino)pyrimidin-4-ylamino)phenyl)methanesulfonamide]
100 to 1000 | 100 to 1000 | CNCCS(=O)(=O)Nc1cccc(Nc2nc(Nc3cc(OC)c(OC)c(OC)c3)ncc2F)c1 [Example 64, N-(3-(5-fluoro-2-(3,4,5-trimethoxyphenylamino)pyrimidin-4-ylamino)phenyl)-2-(methylamino)ethanesulfonamide]
100 to 1000 | 100 to 1000 | COc1cc(Nc2ncc(F)c(Nc3ccc(C)cc3NS(C)(=O)=O)n2)cc(OC)c1OC [Example 170, N-(2-(5-Fluoro-2-(3,4,5-trimethoxyphenylamino)pyrimidin-4-ylamino)-5-methylphenyl)methanesulfonamide]
< 100 | < 100 | CS(=O)(=O)Nc1ccccc1Nc1nc(Nc2cccc(OCCN3CCCC3)c2)ncc1Cl [Example 140, N-(2-(5-chloro-2-(3-(2-(pyrrolidin-1-yl)ethoxy)phenylamino)pyrimidin-4-ylamino)phenyl)methanesulfonamide]
100 to 1000 | 100 to 1000 | COc1cc(Nc2ncc(F)c(Nc3ccc(C)c(C)c3NS(C)(=O)=O)n2)cc(OC)c1OC [Example 165, N-(6-(5-fluoro-2-(3,4,5-trimethoxyphenylamino)pyrimidin-4-ylamino)-2,3-dimethylphenyl)methanesulfonamide]
1000 to 10000 | 100 to 1000 | COc1cc(Nc2ncc(F)c(Nc3ccccc3NS(=O)(=O)c3cccs3)n2)cc(OC)c1OC [Example 50, N-(2-(5-fluoro-2-(3,4,5-trimethoxyphenylamino)pyrimidin-4-ylamino)phenyl)thiopehene-2-sulfonamide]
100 to 1000 | 100 to 1000 | CS(=O)(=O)Nc1ccccc1Nc1nc(Nc2ccc(OCCN3CCCC3)cc2)ncc1F [Example 96, N-(2-(5-fluoro-2-(4-(2-(pyrrolidin-1-yl)ethoxy)phenylamino)pyrimidin-4-ylamino)phenyl)methanesulfonamide]
100 to 1000 | 100 to 1000 | CS(=O)(=O)Nc1ccccc1Nc1nc(Nc2ccc(N3CCCCC3)cc2)ncc1Br [Example 215, N-(2-(5-bromo-2-(4-(piperidin-1-yl)phenylamino)pyrimidin-4-ylamino)phenyl)methanesulfonamide]
1000 to 10000 | 100 to 1000 | CS(=O)(=O)Nc1ccccc1Nc1nc(Nc2cccc(-n3cncn3)c2)ncc1F [Example 21, N-(2-(2-(3-(1H-1,2,4-triazol-1-yl)phenylamino)-5-fluoropyrimidin-4-ylamino)phenyl)methanesulfonamide]
< 100 | 100 to 1000 | Cc1cccc(Nc2nc(Nc3cccc(OCCN4CCCCC4)c3)ncc2F)c1NS(C)(=O)=O [Example 112, N-(2-(5-fluoro-2-(3-(2-(piperidin-1-yl)ethoxy)phenylamino)pyrimidin-4-ylamino)-6-methylphenyl)methanesulfonamide]
100 to 1000 | < 100 | CS(=O)(=O)Nc1ccccc1Nc1nc(Nc2ccc(OCCN3CCCCC3)cc2)ncc1F [Example 87]
100 to 1000 | 100 to 1000 | COc1ccc(Nc2ncc(Br)c(Nc3ccccc3NS(C)(=O)=O)n2)cc1 [Example 106, N-(2-(5-bromo-2-(4-methoxyphenylamino)pyrimidin-4-ylamino)phenyl)methanesulfonamide]
100 to 1000 | 100 to 1000 | CC(=O)c1cccc(Nc2ncc(F)c(Nc3ccccc3NS(C)(=O)=O)n2)c1 [Example 14, N-(2-(2-(3-acetylphenylamino)-5-fluoropyrimidin-4-ylamino)phenyl)methanesulfonamide]
100 to 1000 | 100 to 1000 | CN(C)c1ccc(Nc2ncc(F)c(Nc3ccccc3NS(C)(=O)=O)n2)cc1 [Example 7, N-(2-(2-(4-(dimethylamino)phenylamino)-5-fluoropyrimidin-4-ylamino)phenyl)methanesulfonamide]

SMILES | IC50 (ZAP-70) [nM] | IC50 (Jurkat cells) [nM]
COc1cc(Nc2ncc(Cl)c(Nc3ccccc3NS(C)(=O)=O)n2)cc(OCC(C)C)c1OC [Example 137, N-(2-(5-chloro-2-(3-isobutoxy-4,5-dimethoxyphenylamino)pyrimidin-4-ylamino)phenyl)methanesulfonamide] | < 100 | 100 to 1000
